Data as given in patent US20110251135A1, “INHIBITORS OF PERITONEAL SEEDING OF CANCER CELLS” (University of Utah Research Foundation, priority 2008, published 2011).

Columns and labels:
HT-29 cells = experiment: One-hour cell adhesion assay (crystal violet); format: cell-based, human; details: adherent HT-29 pretreated for three days with various concentrations, then one-hour adhesion assay
From the text: FIG. 3 is a group of graphs that show NF-κB inhibitors cause apoptosis of colon cancer cells. […] The data points represent the average percent of annexin V-positive, propidium iodide-negative cells (of the total cells counted) from triplicate experiments. The error bars represent the standard error of the means. […] The results shown are a graphic representation of individual flow cytometry results expressed as the percentage of cells that were annexin V-positive of those that excluded propidium iodide. […] An immunoblot of the lysates for cleaved PARP was performed. Each lane represents equal total protein concentrations. […] The cells were allowed to adhere to plastic dishes for 1 hour after which they were washed gently in PBS and stained with crystal violet. The crystal violet stained cells were solubilized in deoxycholate and the absorbance detected in a spectrophotometer at 590 nm. The adherent cells were expressed as a fraction of the controls. Each data point represents the average of triplicate experiments and the error bars the standard errors of the means.
Even though BAY 11-7085 induced a loss of cell adhesion, it was important to show whether HT-29 cells were actually susceptible to anoikis.

HCT-116 cells = experiment: Soft agar colony formation assay; format: cell-based, human; details: 10 μM for 6 days
Experimental: DLD-1, HCT-116, and HT-29 cells were cultured for 6 days in soft agar in the presence of DMSO (control), 10 μM BAY 11-7082, or 10 μM BAY 11-7085. The data points represent the means of colony counts per field (20×) performed in 5 different regions of the culture dishes. The data shown represent a typical result of two separate experiments. FIG. 2B and FIG. 2C are graphs that show athymic mice received subcutaneous injections of HT-29 (FIG. B) or HCT-116 (FIG. C) cells, followed by […] of BAY 11-7085 (dark bars) or DMSO (white bars) intraperitoneally twice weekly. The bars represent the 25-75% ranges of the tumor volumes and the horizontal lines in the bars are the medians. Using the Kruskal-Wallace statistical test to compare the median tumor volumes between BAY 11-7085 and DMSO yielded a p-value of 0.005 for HT-29 cells but >0.05 for HCT-116 cells.
Anchorage-independent cell growth is a hallmark of cancer cells and is a good correlation to tumorigencity in vivo. Therefore, the effects of BAY 11-7082 and BAY 11-7085 were examined on colon cancer cell growth using the soft agar colony formation assay.

[1] = test system: BxPc-3 pancreatic cancer cells; experiment: Athymic mouse model of peritoneal carcinomatosis (IP cancer cells, bioluminescent imaging, 9 days); format: in vivo; details: BxPc-3 IP; BAY 11-7085 5 mg/kg IP 24 h before, then every 3 days for 9 days
Experimental: (§1) Twenty-four hours later, […] Su.86 or BxPC-3 pancreatic cancer cells, that were stably transfected with a firefly luciferase construct, were delivered IP. […] At the end of treatment, the mice received luciferin IP and sacrificed. The abdominal cavities were exposed and the mice placed immediately in a bioluminescent imager and photographed. The individual intraabdominal peritoneal tumors were counted. The subset of tumor implants limited to the liver surface was determined as well. […] The proportion of mice with peritoneal and/or hepatic tumor implants were compared using a test of proportions (*p<0.05).

[2] = test system: Su.86 pancreatic cancer cells; experiment: as above; format: in vivo; details: Su.86 IP; BAY 11-7085 5 mg/kg IP 24 h before, then every 3 days for 9 days
Experimental: as §1

[3] = athymic mice; BAY 11-7085 5 mg/kg IP, 4 doses total

CC(C)(C)c1ccc(S(=O)(=O)/C=C/C#N)cc1 [BAY 11-7085, (2E)-3-[4-(tertiarybutylphenyl)sulfonyl]-2-propenenitrile]
cell adhesion (HT-29 cells): significant and rapid inhibition of cell adhesion at high concentrations
anchorage-independent proliferation (HCT-116 cells): but not HCT-116
% with Liver Implants [1]: 29%
% with Peritoneal Implants [1]: 71%
% with Liver Implants [2]: 0%
% with Peritoneal Implants [2]: 33%
deaths / overt signs of toxicity [3]: None of the mice died or showed overt signs of toxicity
